Test results taken from ChEMBL document CHEMBL5625189, “Discovery of new diaryl ether inhibitors against Mycobacterium tuberculosis targeting the minor portal of InhA” (Eur J Med Chem, 2023).

How the values were obtained:
Type in all cases: functional
Conditions in all cases: 432 h, time 18 day
[1] = test system: Mycobacterium tuberculosis; assay: Antimycobacterial activity against Mycobacterium tuberculosis H37Ra harbouring pVV2 plasmid overexpressing katG assessed as inhibition of bacterial growth incubated for 18 days by drop dilution method
[2] = test system: Mycobacterium tuberculosis; assay: Antimycobacterial activity against Mycobacterium tuberculosis H37Ra harbouring pVV16 plasmid overexpressing hadABC assessed as inhibition of bacterial growth incubated for 18 days by drop dilution method
[3] = test system: Mycobacterium tuberculosis; assay: Antimycobacterial activity against Mycobacterium tuberculosis H37Ra harbouring pMV261 plasmid assessed as inhibition of bacterial growth incubated for 18 days by drop dilution method
[4] = test system: Mycobacterium tuberculosis; assay: Antimycobacterial activity against Mycobacterium tuberculosis H37Ra harbouring pMV261 plasmid overexpressing InhA assessed as inhibition of bacterial growth incubated for 18 days by drop dilution method
[5] = test system: Mycobacterium tuberculosis; assay: Antimycobacterial activity against Mycobacterium tuberculosis H37Ra harbouring pVV2 plasmid assessed as inhibition of bacterial growth incubated for 18 days by drop dilution method

Measured: MIC

CCN(CC)c1ccc2c(OCc3cn(Cc4ccc(Oc5ccccc5)c(O)c4)nn3)cc(=O)oc2c1
> 25 µM: [4]
6.25 µM: all other assays above

CCCCCCc1ccc(Oc2ccc(Cn3cc(CNc4ccc([N+](=O)[O-])c5nonc45)nn3)cc2)c(O)c1
2.5 µM: all assays above

Cc1cc(=O)oc2cc(OCc3cn(Cc4ccc(Oc5ccccc5)c(O)c4)nn3)ccc12
12.5 µM: [4]
1.25 µM: all other assays above
